Consider 3 compounds from patent publication US11708283B2, “Metal-chelating compositions and their use in methods of removing or inhibiting barium scale” (CORNELL UNIVERSITY, priority 2018, dated 2023).

The structures appear in SMILES notation.

The conditions of series [1]: literature values (footnotes b, c); cited from earlier work.
Series [2] is described as follows: Aqueous solubility of ligand (stock solution preparation). Type of series: physicochemical. To be noted: stock solution could not be prepared. Here is the method:
Stock solutions of macropa and macropaquin were prepared in H2O. […] The exact ligand concentrations were determined from the potentiometric titration curves with KOH. Protonation equilibria of macropa^2− and macropaquin^2− were determined by adding standardized KOH to a solution (20 mL) containing ligand (˜0.02 mmol), 0.1 M HCl (0.1 mmol), and 1 M KCl (1.9 mmol). The titration method employed a 0.1 mV/min drift limit with a maximum wait time of 90 sec between addition of base and measurement. At least 70 data points were collected over the pH range of 2.5-10.5 (macropa) or 2.5-11.3 (macropaquin). The protonation constants, defined in Eq. 1, were calculated from the average of at least 4 independent titrations using the appropriate software.

Series [3] is described as follows: Recovery and reuse of macropa for BaSO4 dissolution. Here is the method: The capacity for recovery and reuse of macropa post-BaSO4 dissolution was assessed qualitatively. FIG. 7 schematically depicts a process for ligand recovery and reuse. A solution of macropa-dissolved BaSO4 was acidified to release the Ba^2+ from the ligand as BaSO4. After filtration of the precipitated BaSO4 and basification of the solution, the recovered ligand was successfully reused for another cycle of BaSO4 dissolution. More specifically, a sample of macropa-dissolved BaSO4 (9.66 mM macropa, 8.74 mM Ba(NO3)2, 26.04 mM Na2SO4) was acidified to pH 1 with concentrated HCl to protonate the ligand, inducing Ba^2+ decomplexation and precipitation as BaSO4. The macropa solution was isolated by filtration, basified to pH 8 with 2 M NaOH, and combined with another portion of BaSO4. Within 40 minutes, no visible precipitate remained in the vial, signaling that the recycled macropa dissolved all the BaSO4.
In other experiments, an initial solution of macropa-dissolved BaSO4 was prepared by stirring at 450 RPM a suspension containing BaSO4 (8.74 mM Ba(NO3)2; 26.04 mM Na2SO4), macropa (9.66 mM), and 2M NaOH (35 μL) in 1M NaHCO3 (326 μL). The final volume was 1035 μL and the pH was 8. […] The solution was adjusted to pH 1 (by litmus paper) by adding concentrated HCl (3 drops). The resultant suspension was stirred for 10 minutes and then filtered through a nylon syringe filter (0.22 μm). The syringe filter was rinsed with 0.1 M HCl (2×100 μL) to facilitate full recovery of the ligand. The pH of the filtrate was carefully adjusted back to pH 8 (by litmus paper) with 2 M NaOH. To this recovered solution of macropa was added another portion of BaSO4 (0.009 mmol BaNO3, 0.027 mmol Na2SO4). The suspension was stirred at 450 RPM and RT. The dissolution of BaSO4 was monitored visually until all of the BaSO4 was dissolved, marking the completion of a full cycle of ligand recovery and reuse. Another cycle was then initiated via the addition of concentrated HCl to the solution. A total of five cycles were performed and the time to full dissolution of BaSO4 was recorded. […] The precipitate may be attributed to a small amount of BaSO4 that remains undissolved as a consequence of ligand loss over time, which occurs because aliquots of the solution are removed to assess the pH during the recovery and reuse process.

Series [4] in a line: Dissolution of barite ore in columns (ligand efficiency, GFAAS). To be noted: ~48 mM ligand, soak 1 hour.

Regarding `O=C(O)CN1CCN(CC(=O)O)CCN(CC(=O)O)CCN(CC(=O)O)CC1` [DOTA, reference compound], the “log KBaL” value in series [1] was 11.75.

On to `O=S(=O)(O)c1ccc(O)c2nc(CN3CCOCCOCCN(Cc4ccc5c(S(=O)(=O)O)ccc(O)c5n4)CCOCCOCC3)ccc12` [macroquin-SO3, 2,2′-((1,4,10,13-tetraoxa-7,16-diazacyclooctadecane-7,16-diyl)bis(methylene))bis(8-hydroxyquinoline-5-sulfonic acid)], for which the aqueous solubility result in series [2] is “poor aqueous solubility”.

For the compound `O=C(O)c1cccc(CN2CCOCCOCCN(Cc3cccc(C(=O)O)n3)CCOCCOCC2)n1` [macropa, 6,6-((1,4,10,13-tetraoxa-7,16-diazacyclooctadecane-7,16-diyl)bis(methylene))dipicolinic acid], in series [3] (9.66 mM macropa, 8.74 mM Ba(NO3)2, 26.04 mM Na2SO4, pH 8), the “time to complete dissolution of BaSO4 (initial solution)” value is 17 min. Besides, the “time until no visible BaSO4 precipitate remained with recycled ligand” value in series [3] (first reuse, pH 8) is no more than 40 min. The “efficacy on reuse four more times” value in series [3] (ligand recovered and reused) is “negligible loss in efficacy or speed of dissolution”. The “BaSO4 dissolution during the 4th and 5th cycles” value in series [3] (recovery and reuse cycles) is “dissolution of most of the BaSO4 was rapidly achieved within the first hour”. Further, the “ligand efficiency (percent of ligand saturated with Ba^2+)” value in series [4] (pH 8, barite 3 g) is given as 40%; in series [4] (pH 11, barite 3 g), 40%.
